For this data set, the system named is Sprague-Dawley rats exposed to bright continuous light. In words: Light damage (photo-oxidative damage) model of dry AMD, corticosteroid treatment vs vehicle. It is filed as in vivo. The following applies: after photo-oxidative damage; FA compared with TA; listed as FA. Here is the method: All experiments conducted were in accordance with the ARVO Statement for the Use of Animals in Ophthalmic and Vision Research. Albino Sprague-Dawley (SD) rats aged from […] were exposed to bright continuous light (BCL) at 1000 lux. The rats were born and reared in dim cyclic light conditions (12 h light:12 h dark) with an ambient light level of approximately 5 lux. Exposure to BCL was conducted on animals aged between post-natal days (P) 90-150. Prior to BCL exposure, rats were dark adapted for a minimum of 15 h then transferred to individual cages designed to allow light to enter unimpeded. There were no areas of shadow in the cages; pupillary dilation was not performed. BCL exposure commenced consistently at 9:00 am, and was achieved using a cold-white fluorescent light source positioned above the cages (18 W, Cool White; TFC), at an intensity of approximately 1000 lux at the cage floor. BCL exposure was maintained over a period of 24 h, after which time the animals were immediately returned to dim cyclic conditions for the post-exposure period.
Age-matched, dim-reared animals served as control samples.
Animals were euthanatized by overdose of barbiturate administered by an intraperitoneal injection (60 mg/kg bodyweight; Valabarb; Virbac Animal Health, Regents Park, NSW, Australia).
Eyes were oriented and embedded in O.C.T. compound (Tissue-Tek, Sakura, Japan) then snap frozen in liquid nitrogen and cryosectioned at […] Retinas for RNA extraction were immediately deposited in RNA stabilizer (RNAlater; Ambion, Austin, Tex.), prechilled on ice, and stored according to the manufacturer's instructions. RNA was then extracted from each sample. The samples were incubated at 4° C. overnight to allow adequate penetration of the preservative, and then stored at […] until required. The samples were processed in batches encompassing the entire time course, to ensure comparability. […]
TUNEL labeling was used to quantify photoreceptor apoptosis in cryosections, during and after BCL, with a protocol published previously. […]

“Also recorded” adds a separate entry of the source.

For `CC(=O)OCC(=O)[C@@]1(O)CC[C@H]2[C@@H]3CCC4=CC(=O)CC[C@]4(C)[C@@]3(F)[C@@H](O)C[C@@]21C` [Fludrocortisone acetate, 9-α-Fiuoro-11 β. 17 α, 21-trihydroxy-4-pregnene-3, 20 dione acetate], the “prevention of macrophage recruitment (IBA1)” value is reported as “more effective than TA; also recorded: superior”; the “prevention of photoreceptor death / cell death (TUNEL)” value was “more effective than TA; also recorded: superior”; the “retinal function (ERG, a- and b-wave amplitude)” value was “preserves retinal function; also recorded: superior”.

The record behind these values is patent publication US20210069213A1, “COMPOSITION AND METHOD OF TREATMENT FOR DRY A.M.D. (AGE RELATED MACULAR DEGENERATION)” (EYE CO PTY LTD, priority 2018, published 2021).
